According to the NIST ThermoML archive (doi:10.1016/j.fluid.2012.12.022):
Numbers after ± are expanded uncertainties.

Columns and labels:
[1] = refractive index (Na D-line) (dimensionless); settings: 298.15 K; 101.33 kPa; Liquid; Standard Abbe refractometry
[2] = Liquid; for Normal boiling temperature: Distillation; for mass density: 298.15 K, 101.33 kPa, Vibrating tube method

| SMILES | refractive index [1] | Normal boiling temperature [2] [°C] | mass density [2] [kg/m3] |
| --- | --- | --- | --- |
| OCCO [1,2-ethanediol] | 1.4308 ± 0.0005 | 197.12 ± 0.41 |  |
| CCO [ethanol] | 1.3594 ± 0.0005 | 77.90 ± 0.41 | 785.18 ± 0.15 |
| OCC(O)CO [glycerol] | 1.4726 ± 0.0005 | 289.90 ± 0.41 | 1258.52 ± 0.19 |
| O [water] | 1.3325 ± 0.0005 | 100.00 ± 0.41 |  |
